Reference: US20080125435A1, “1-(Het)aryl-3-[hetaryl-piperidin-4-yl]-thioureas as modulators of the EP2 receptor” (priority 2006, published 2008)

Legend:
[1] = tested on: cumulus-ovum complexes (cumulus expansion); assay: Cumulus expansion test in vitro; type: cell-based, mice; conditions: competing with natural EP2 receptor agonist PGE2
Experimental: In immature female mice (strain: CD1 (ICR) von Charles River), folliculogenesis is induced at an age of 14-18 days by a single administration (intraperitoneal) of 10 I.U. of PMSG (Pregnant Mare Serum Gonadotropin; Sigma G-4877, Lot 68H0909). 47-50 hours after the injection, the ovaries are removed and the cumulus-ovum complexes removed. At this stage, the cumulus complex is not yet expanded.
The cumulus-ovum complexes are now incubated for 20-24 hours with prostaglandin E2 (PGE2) (1 μM), vehicle control (ethanol) or test substances. Medium: alpha-MEM medium with 0.1 mM IBMX, pyruvate (0.23 mM) glutamine (2 mM), pen/strep 100 IU/ml pen. and 100 μg/ml strep.) and HSA (8 mg/ml)). The cumulus expansion is then assessed by classification into four stages (after Vanderhyden et al. Dev Biol. 1990 August; 140(2):307-317).

[2] = biological target: T1, EP2 subtype of the human PGE2 receptor (Homo sapiens, UniProt P43116); assay: cAMP antagonism test (test for antagonism in the presence of PGE2); type: cell-based; conditions: in presence of agonist PGE2
T1 construct: host or cells: cells in a cell culture plate
T1 sequence (P43116 whole entry): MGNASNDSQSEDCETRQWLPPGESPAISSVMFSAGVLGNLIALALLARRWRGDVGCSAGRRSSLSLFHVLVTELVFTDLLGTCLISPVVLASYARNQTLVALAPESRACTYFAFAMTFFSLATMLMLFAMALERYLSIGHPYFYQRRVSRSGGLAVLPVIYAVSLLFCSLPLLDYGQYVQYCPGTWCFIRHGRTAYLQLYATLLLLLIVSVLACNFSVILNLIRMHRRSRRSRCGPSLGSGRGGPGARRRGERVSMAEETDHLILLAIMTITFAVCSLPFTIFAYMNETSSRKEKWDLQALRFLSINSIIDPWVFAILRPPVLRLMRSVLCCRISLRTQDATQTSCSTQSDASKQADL
Text: (§1) The binding of PGE2 to the EP2 subtype of the human PGE2 receptor induces the activation of membrane adenylate cyclases and leads to the formation of cAMP. In the presence of the phosphodiesterase inhibitor IBMX, the cAMP accumulated through this stimulation and released by cell lysis is used in a competitive detection process. In this test, the cAMP in the lysate competes with cAMP-XL665 for the binding of an Eu cryptate-labeled anti-cAMP antibody. Here in the absence of cellular cAMP a maximal signal is produced, which is due to the coupling of this antibody to the cAMP-XL665 molecule. As a result, after excitation at 337 nm, a long-lasting emission signal at 665 nm (and at 620 nm) based on FRET (fluorescence resonance energy transfer) is produced. Both signals are measured in a suitable measuring instrument with time delay, i.e. after the background fluorescence has died away.
(§2) The substance solutions (0.75 μl) which contain 30% DMSO are placed in a test plate and are dissolved in 16 μl of a KRSB+IBMX stimulation solution (1× cancer Ringer bicarbonate buffer; Sigma-Aldrich # K-4002; including 750 μM 3-isobutyl-1-methylxanthine Sigma-Aldrich # 1-7018), then 15 μl of this are transferred into a media-free cell culture plate which has been washed with KRSB shortly beforehand.
After a 30-minute preincubation at room temperature (RT), 5 μl of a 4×PGE2 solution (11 nM) are added and incubated in the presence of the agonist for a further 60 mins at RT (volume: ˜20 μl), before the reaction is then stopped by addition of 5 μl of lysis buffer and the mixture is incubated for a further 20 mins at RT (volume: ˜25 μl). The cell lysate is then transferred onto an assay plate and assayed in accordance with the manufacturer's instructions (cyclic AMP kit Cisbio International # 62AMPPEC).

[3] = biological target: T1, EP2 subtype of the human PGE2 receptor; assay: cellular agonism test (cAMP); type: cell-based
Text: as §1
as §2, with “μl)” for “μl) which contain 30% DMSO are”, “and 30% DMSO” for “and”, “beforehand. […]” for “beforehand.”

IC50 [2] [µM] | activity in the cellular agonism test [3] | SMILES | suppression of the expansion of the cumulus ([1]; at a concentration of 100-200 μM) | suppression of cumulus expansion ([1]; at a 10 times lower concentration than AH 6809 (100-200 μM)) [%]
 |  | CC(C)Oc1ccc2c(=O)c3cc(C(=O)O)ccc3oc2c1 [AH 6809, reference compound] | ca. 30% | 
2.7 |  | CSc1ccc(NC(=S)NC2CCN(c3ccnc4cc(Cl)ccc34)CC2)cc1 [Example 1, 1-[1-(7-chloro-quinolin-4-yl)-piperidin-4-yl]-3-(4-methylsulfanyl-phenyl)-thiourea] |  | 
3.8 | no inhibition | S=C(Nc1ccccc1Br)NC1CCN(c2ccnc3cc(Cl)ccc23)CC1 [Example 8, 1-(2-bromo-phenyl)-3-(1-(7-chloro-quinolin-4-yl)-piperidin-4-yl)-thiourea] |  | 20
3.4 |  | CSc1ccccc1NC(=S)NC1CCN(c2ccnc3cc(Cl)ccc23)CC1 [Example 14, 1-(1-(7-chloro-quinolin-4-yl)-piperidin-4-yl)-3-(2-methylsulfanyl-phenyl)-thiourea] |  | 
